Patent publication US20210382058A1, “PATIENT SELECTION FOR TREATMENT OF MYC POSITIVE CANCERS WITH INDENOISOQUINOLINES” (Purdue Research Foundation, priority 2020, published 2021)
Like-named read-outs stand apart in the source and are kept apart here.

Key:
[1] = target: T1, human topoisomerase I (Homo sapiens, UniProt P11387); conditions: relative topoisomerase I inhibition levels, previously determined, six levels (0 - 5, +++++ = 5); cited from earlier work
T1 sequence (P11387 1-765): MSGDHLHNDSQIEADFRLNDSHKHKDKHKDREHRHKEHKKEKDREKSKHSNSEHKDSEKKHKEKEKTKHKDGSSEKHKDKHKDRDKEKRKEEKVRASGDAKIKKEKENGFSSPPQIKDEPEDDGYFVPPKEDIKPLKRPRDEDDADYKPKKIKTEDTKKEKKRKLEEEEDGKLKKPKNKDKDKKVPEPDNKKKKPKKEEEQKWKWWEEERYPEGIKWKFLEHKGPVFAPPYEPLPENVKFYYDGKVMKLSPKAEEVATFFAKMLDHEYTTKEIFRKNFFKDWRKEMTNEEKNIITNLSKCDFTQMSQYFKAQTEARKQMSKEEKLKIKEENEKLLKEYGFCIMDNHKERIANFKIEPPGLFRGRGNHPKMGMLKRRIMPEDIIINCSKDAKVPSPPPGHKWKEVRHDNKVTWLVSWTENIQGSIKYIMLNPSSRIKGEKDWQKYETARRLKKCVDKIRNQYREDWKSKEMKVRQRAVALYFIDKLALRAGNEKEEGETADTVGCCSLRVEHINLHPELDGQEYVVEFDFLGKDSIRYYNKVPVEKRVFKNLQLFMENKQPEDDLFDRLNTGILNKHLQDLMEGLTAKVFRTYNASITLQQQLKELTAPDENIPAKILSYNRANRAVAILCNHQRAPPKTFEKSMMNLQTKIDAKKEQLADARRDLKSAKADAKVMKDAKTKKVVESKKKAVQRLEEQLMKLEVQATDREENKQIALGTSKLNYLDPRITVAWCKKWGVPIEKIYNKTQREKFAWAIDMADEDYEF

[2] = test system: NCI-60 cancer cell lines; assay: NCI-60 cancer cell line drug screen (GI50, MGM); assay type: cell-based, human; conditions: Homo sapiens; for GI50: read-out: Antiproliferative Activities [GI50 (μM)]
Experimental: Cancer cells were incubated with the test compounds at five concentrations ranging from 100 μM to 10 nM for 48 h. […] The approximate average of GI50 values across the entire panel of NCI-60 cancer cell lines for each compound was recorded as the MGM value.

Question: Which “Top1 Inhibiton” value [1] does the source give for `COc1cc2c(cc1O)-c1c(c3ccc([N+](=O)[O-])cc3c(=O)n1CCCN1CCOCC1)C2=O` [Compound 36] here?
Answer: ++ (medium inhibition, ++, MYC expression inhibited at 2.0 μM, or no clear dose-dependent MYC inhibition)

Question: What about the GI50 ([2]; 786-0, Renal Cancer, 786-0) of the same compound?
Answer: 0.21 µM

Question: And the GI50 ([2]; A498, Renal Cancer, A498)?
Answer: 0.07 µM

Question: What about the GI50 ([2]; A549, Non-Small Cell Lung Cancer, A549/ATCC) of the same compound?
Answer: 0.52 µM

Question: What about the GI50 ([2]; ACHN, Renal Cancer, ACHN) of the same compound?
Answer: 0.05 µM

Question: And the GI50 ([2]; BT-549, Breast Cancer, BT-549)?
Answer: 0.12 µM

Question: And the GI50 ([2]; CAKI-1, Renal Cancer, CAKI-1)?
Answer: 0.12 µM

Question: And the GI50 ([2]; CCRF-CEM, Leukemia, CCRF-CEM)?
Answer: 0.05 µM

Question: And the GI50 ([2]; COLO 205, Colon Cancer, COLO 205)?
Answer: 7.76 µM

Question: What about the GI50 ([2]; DU-145, Prostate Cancer, DU-145) of the same compound?
Answer: 0.14 µM

Question: And the GI50 ([2]; HCC 2998, Colon Cancer, HCC-2998)?
Answer: 1.42 µM

Question: What about the GI50 ([2]; HCT-15, Colon Cancer, HCT-15) of the same compound?
Answer: 1.53 µM

Question: And the GI50 ([2]; HCT-116, Colon Cancer, HCT-116)?
Answer: 0.22 µM

Question: And the GI50 ([2]; HL-60, Leukemia, HL-60(TB))?
Answer: 0.08 µM

Question: And the GI50 ([2]; HOP-62, Non-Small Cell Lung Cancer, HOP-62)?
Answer: 0.12 µM

Question: What about the GI50 ([2]; HOP-92, Non-Small Cell Lung Cancer, HOP-92) of the same compound?
Answer: 0.28 µM

Question: And the GI50 ([2]; HT-29, Colon Cancer, HT29)?
Answer: 1.18 µM

Question: What about the GI50 ([2]; Hs-578T, Breast Cancer, HS 578T) of the same compound?
Answer: 1.97 µM

Question: What about the GI50 ([2]; IGROV-1, Ovarian Cancer, IGROV1) of the same compound?
Answer: 1.52 µM

Question: And the GI50 ([2]; K562, Leukemia, K-562)?
Answer: 0.09 µM

Question: What about the GI50 ([2]; KM12, Colon Cancer, KM12) of the same compound?
Answer: 1.04 µM

Question: And the GI50 ([2]; LOX IMVI, Melanoma, LOX IMVI)?
Answer: 0.09 µM

Question: What about the GI50 ([2]; Leukemia, SR) of the same compound?
Answer: 0.03 µM

Question: And the GI50 ([2]; MCF7, Breast Cancer, MCF7)?
Answer: 0.05 µM

Question: And the GI50 ([2]; MDA-MB-231, Breast Cancer, MDA-MB-231/ATCC)?
Answer: 2.06 µM

Question: What about the GI50 ([2]; MDA-MB-435, Melanoma, MDA-MB-435) of the same compound?
Answer: 0.89 µM

Question: What about the GI50 ([2]; MDA-MB-468, Breast Cancer, MDA-MB-468) of the same compound?
Answer: 0.14 µM

Question: What about the GI50 ([2]; MOLT-4, Leukemia, MOLT-4) of the same compound?
Answer: 0.03 µM

Question: What about the GI50 ([2]; Malme-3M, Melanoma, MALME-3M) of the same compound?
Answer: 1.16 µM

Question: What about the GI50 ([2]; Melanoma, M14) of the same compound?
Answer: 0.08 µM

Question: And the GI50 ([2]; NCI-H23, Non-Small Cell Lung Cancer, NCI-H23)?
Answer: 0.17 µM

Question: And the GI50 ([2]; NCI-H226, Non-Small Cell Lung Cancer, NCI-H226)?
Answer: 0.45 µM

Question: And the GI50 ([2]; NCI-H322M, Non-Small Cell Lung Cancer, NCI-H322M)?
Answer: 0.66 µM

Question: And the GI50 ([2]; NCI-H460, Non-Small Cell Lung Cancer, NCI-H460)?
Answer: 0.03 µM

Question: And the GI50 ([2]; NCI-H522, Non-Small Cell Lung Cancer, NCI-H522)?
Answer: 0.05 µM

Question: And the GI50 ([2]; OVCAR-3, Ovarian Cancer, OVCAR-3)?
Answer: 0.57 µM

Question: And the GI50 ([2]; OVCAR-4, Ovarian Cancer, OVCAR-4)?
Answer: 1.29 µM

Question: What about the GI50 ([2]; OVCAR-5, Ovarian Cancer, OVCAR-5) of the same compound?
Answer: 3.6 µM

Question: What about the GI50 ([2]; OVCAR-8, Ovarian Cancer, OVCAR-8) of the same compound?
Answer: 0.45 µM

Question: What about the GI50 ([2]; Ovarian Cancer, NCl/ADR-RES) of the same compound?
Answer: 0.28 µM

Question: And the GI50 ([2]; Prostate Cancer, PC-3)?
Answer: 0.67 µM

Question: And the GI50 ([2]; RPMI-8226, Leukemia, RPMI-8226)?
Answer: 0.12 µM

Question: And the GI50 ([2]; RXF 393, Renal Cancer, RXF 393)?
Answer: 0.46 µM

Question: And the GI50 ([2]; Renal Cancer, U0-31)?
Answer: 0.07 µM

Question: And the GI50 ([2]; SF-268, CNS Cancer, SF-268)?
Answer: 0.04 µM

Question: What about the GI50 ([2]; SF-295, CNS Cancer, SF-295) of the same compound?
Answer: 0.18 µM

Question: And the GI50 ([2]; SF-539, CNS Cancer, SF-539)?
Answer: 0.27 µM

Question: And the GI50 ([2]; SK-MEL-2, Melanoma, SK-MEL-2)?
Answer: 9.44 µM

Question: And the GI50 ([2]; SK-MEL-5, Melanoma, SK-MEL-5)?
Answer: 0.22 µM

Question: And the GI50 ([2]; SK-MEL-28, Melanoma, SK-MEL-28)?
Answer: 1.37 µM

Question: And the GI50 ([2]; SK-OV-3, Ovarian Cancer, SK-OV-3)?
Answer: 0.24 µM

Question: What about the GI50 ([2]; SN12C, Renal Cancer, SN12C) of the same compound?
Answer: 0.2 µM

Question: What about the GI50 ([2]; SNB-19, CNS Cancer, SNB-19) of the same compound?
Answer: 0.39 µM

Question: And the GI50 ([2]; SNB-75, CNS Cancer, SNB-75)?
Answer: 0.21 µM

Question: And the GI50 ([2]; SW-620, Colon Cancer, SW-620)?
Answer: 0.08 µM

Question: What about the GI50 ([2]; T47D, Breast Cancer, T-47D) of the same compound?
Answer: 0.56 µM

Question: What about the GI50 ([2]; TK-10, Renal Cancer, TK-10) of the same compound?
Answer: 2.12 µM

Question: What about the GI50 ([2]; U-251, CNS Cancer, U251) of the same compound?
Answer: 0.12 µM

Question: What about the GI50 ([2]; UACC-62, Melanoma, UACC-62) of the same compound?
Answer: 0.05 µM

Question: And the GI50 ([2]; UACC-257, Melanoma, UACC-257)?
Answer: 0.48 µM

Question: What about the mean GI50 across NCI-60 panel (MGM) ([2]; average of GI50 values across the entire panel of NCI-60 cancer cell lines) of the same compound?
Answer: 280 nM
